This note sets out measurements from US10239873B2, “7-azaindole or 4,7-diazaindole derivatives as IKKϵ epsilon and TBK1 inhibitor and pharmaceutical composition comprising same” (GREEN CROSS CORPORATION, priority 2015, dated 2019).

The assay concerns the target T1, TBK1 (Homo sapiens, UniProt Q9UHD2).
T1 construct: purchased Promega (Invitrogen is also named in the same bracket) V4158; PR8031B; V3991 (not assigned to the two kinases)
T1 sequence (Q9UHD2 1-729): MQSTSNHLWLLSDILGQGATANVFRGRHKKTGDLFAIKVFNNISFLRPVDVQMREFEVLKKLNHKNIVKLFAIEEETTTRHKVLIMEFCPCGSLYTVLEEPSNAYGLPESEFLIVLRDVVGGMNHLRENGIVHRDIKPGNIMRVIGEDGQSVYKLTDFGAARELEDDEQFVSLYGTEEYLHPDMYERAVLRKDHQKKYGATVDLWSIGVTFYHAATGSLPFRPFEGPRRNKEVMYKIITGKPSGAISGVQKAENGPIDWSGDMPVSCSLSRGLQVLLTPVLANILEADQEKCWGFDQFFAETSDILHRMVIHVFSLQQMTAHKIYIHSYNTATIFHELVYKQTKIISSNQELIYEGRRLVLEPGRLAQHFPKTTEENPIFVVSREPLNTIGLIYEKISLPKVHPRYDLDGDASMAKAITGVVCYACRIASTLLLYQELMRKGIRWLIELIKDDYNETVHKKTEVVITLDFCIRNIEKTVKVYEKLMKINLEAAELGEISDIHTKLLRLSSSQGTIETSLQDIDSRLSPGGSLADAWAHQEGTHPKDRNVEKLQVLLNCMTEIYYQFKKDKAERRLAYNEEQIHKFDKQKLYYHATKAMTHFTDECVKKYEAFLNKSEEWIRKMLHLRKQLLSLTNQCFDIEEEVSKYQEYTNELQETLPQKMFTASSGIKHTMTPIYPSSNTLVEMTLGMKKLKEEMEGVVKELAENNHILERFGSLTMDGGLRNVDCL
The experiment in a line: ADP-Glo Kinase Assay, inhibition activity on TBK1. In kind it is biochemical. On the procedure: Inhibition activities on IKKϵ and TBK1 were evaluated using the compounds of Examples 1 to 250.
The inhibition activities on IKKϵ and TBK1 were measured by a luminometer, IKKϵ/TBK1 Kinase Enzyme System (Promega, Ca# V4158; Invitrogen, PR8031B, Promega, Ca# V3991) and ADP-Glo Kinase Assay using ADP-Glo™ Kinase Analysis Kit (Promega, Ca# V9101) and a kinase reaction buffer [40 mM Tris(pH 7.5), 20 mM MgCl2, 0.1 mg/mL BSA] in accordance with the manufacturer's protocol.
In turn, `COc1ccc(-c2cnc3[nH]cc(C4=CCN(C(=O)NC5CCOC5)CC4)c3c2)cc1OC` (stereo not drawn) [Example 81, 4-(5-(3,4-Dimethoxyphenyl)-1H-pyrrolo[2,3-b]pyridin-3-yl)-N-(tetrahydrofuran-3-yl)-5,6-dihydropyridine-1(2H)-carboxamide] had an IC50 of 0.021 µM.

`CS(=O)(=O)c1ccc(-c2cnc3[nH]cc(C4=CCN(C(=O)NC5CCOC5)CC4)c3c2)cc1` (stereo not drawn) [Example 82, 4-(5-(4-(Methylsulfonyl)phenyl)-1H-pyrrolo[2,3-b]pyridin-3-yl)-N-(tetrahydrofuran-3-yl)-5,6-dihydropyridine-1(2H)-carboxamide] had an IC50 of 0.035 µM.

Consider `CN1CCN(Cc2ccc(-c3cnc4[nH]cc(C5=CCN(C(=O)NC6CCOC6)CC5)c4c3)s2)CC1` (stereo not drawn) [Example 83, 4-(5-(5-((4-Methylpiperazin-1-yl)methyl)thiophen-2-yl)-1H-pyrrolo[2,3-b]pyridin-3-yl)-N-(tetrahydrofuran-3-yl)-5,6-dihydropyridine-1(2H)-carboxamide], for which the IC50 worked out at 0.013 µM.

`O=C(NC1CCOC1)N1CC=C(c2c[nH]c3ncc(-c4ccc(CN5CCOCC5)s4)cc23)CC1` (stereo not drawn) [Example 84, 4-(5-(5-(Morpholinomethyl)thiophen-2-yl)-1H-pyrrolo[2,3-b]pyridin-3-yl)-N-(tetrahydrofuran-3-yl)-5,6-dihydropyridine-1(2H)-carboxamide] showed a half-inhibitory concentration (IC50) of 0.016 µM.

In turn, `COc1ccc(-c2cnc3[nH]cc(C4=CCN(C(=O)NN5CCCC5)CC4)c3c2)cc1OC` [Example 85, 4-(5-(3,4-Dimethoxyphenyl)-1H-pyrrolo[2,3-b]pyridin-3-yl)-N-(pyrrolidin-1-yl)-5,6-dihydropyridine-1(2H)-carboxamide 2,2,2-trifluoroacetate] displayed an IC50 of 0.11 µM.

As to `COc1ccc(-c2cnc3[nH]cc(C4=CCN(C(=O)NC5CCCC5)CC4C)c3c2)cc1OC` (stereo not drawn) [Example 120, N-cyclopentyl-4-(5-(3,4-dimethoxyphenyl)-1H-pyrrolo[2,3-b]pyridin-3-yl)-5-methyl-5,6-dihydropyridine-1(2H)-carboxamide], the 50% inhibitory concentration (IC50) is 0.084 µM.

As for `CC1CN(C(=O)NC2CCCC2)CC=C1c1c[nH]c2ncc(-c3ccc(S(N)(=O)=O)cc3)cc12` (stereo not drawn) [Example 124, N-cyclopentyl-5-methyl-4-(5-(4-sulfamoylphenyl)-1H-pyrrolo[2,3-b]pyridin-3-yl)-5,6-dihydropyridine-1(2H)-carboxamide], it took 0.051 µM to reach half-maximal inhibition (IC50).

Take `CCC1CN(C(=O)NC2CCCC2)CC=C1c1c[nH]c2ncc(-c3ccc(CN4CCOCC4)s3)cc12` (stereo not drawn) [Example 128, N-cyclopentyl-5-ethyl-4-(5-(5-(morpholinomethyl)thiophen-2-yl)-1H-pyrrolo[2,3-b]pyridin-3-yl)-5,6-dihydropyridine-1(2H)-carboxamide]: half-maximal inhibition (IC50) required 0.071 µM.

In turn, `COc1ccc(-c2cnc3[nH]cc(C4=C(C)CN(C(=O)NC5CCCC5)CC4)c3c2)cc1OC` [Example 129, N-cyclopentyl-4-(5-(3,4-dimethoxyphenyl)-1H-pyrrolo[2,3-b]pyridin-3-yl)-3-methyl-5,6-dihydropyridine-1(2H)-carboxamide] registered a half-maximal inhibitory concentration (IC50) of 0.24 µM.

Consider `CC1=C(c2c[nH]c3ncc(-c4ccc(S(C)(=O)=O)cc4)cc23)CCN(C(=O)NC2CCCC2)C1` [Example 130, N-cyclopentyl-3-methyl-4-(5-(4-(methylsulfonyl)phenyl)-1H-pyrrolo[2,3-b]pyridin-3-yl)-5,6-dihydropyridine-1(2H)-carboxamide], for which the IC50 was 0.55 µM.

For the compound `CC1=C(c2c[nH]c3ncc(-c4ccc(CN5CCOCC5)s4)cc23)CCN(C(=O)NC2CCCC2)C1` [Example 131, N-cyclopentyl-3-methyl-4-(5-(5-(morpholinomethyl)thiophen-2-yl)-1H-pyrrolo[2,3-b]pyridin-3-yl)-5,6-dihydropyridine-1(2H)-carboxamide], the 50% inhibitory concentration (IC50) was determined as 0.22 µM.

In the case of `CS(=O)(=O)c1ccc(-c2cnc3[nH]cc(C4=C(F)CN(C(=O)NC5CCCC5)CC4)c3c2)cc1` [Example 132, N-cyclopentyl-3-fluoro-4-(5-(4-(methylsulfonyl)phenyl)-1H-pyrrolo[2,3-b]pyridin-3-yl)-5,6-dihydropyridine-1(2H)-carboxamide], half-maximal inhibition (IC50) required 0.25 µM.

Compound `COc1ccc(-c2cnc3[nH]cc(C4=C(F)CN(C(=O)NC5CCCC5)CC4)c3c2)cc1OC` [Example 133, N-cyclopentyl-4-(5-(3,4-dimethoxyphenyl)-1H-pyrrolo[2,3-b]pyridin-3-yl)-3-fluoro-5,6-dihydropyridine-1(2H)-carboxamide] came in with an IC50 of 0.22 µM.

`CCOC(=O)N1CC=C(c2c[nH]c3ncccc23)CC1` [Example 135, Ethyl 4-(1H-pyrrolo[2,3-b]pyridin-3-yl)-5,6-dihydropyridine-1(2H)-carboxylate] registered a 50% inhibitory concentration (IC50) of 1.1 µM.

As for `CCCCCOC(=O)N1CC=C(c2c[nH]c3ncccc23)CC1` [Example 136, Pentyl 4-(1H-pyrrolo[2,3-b]pyridin-3-yl)-5,6-dihydropyridine-1(2H)-carboxylate], inhibition was half-maximal at 10.6 µM (IC50).

For the compound `CCCOC(=O)N1CC=C(c2c[nH]c3ncccc23)CC1` [Example 137, Propyl 4-(1H-pyrrolo[2,3-b]pyridin-3-yl)-5,6-dihydropyridine-1(2H)-carboxylate], the IC50 was 0.44 µM.

`CCCCOC(=O)N1CC=C(c2c[nH]c3ncccc23)CC1` [Example 138, Butyl 4-(1H-pyrrolo[2,3-b]pyridin-3-yl)-5,6-dihydropyridine-1(2H)-carboxylate] yielded an IC50 of 5.2 µM.

The compound `CC(C)OC(=O)N1CC=C(c2c[nH]c3ncccc23)CC1` [Example 139, Isopropyl 4-(1H-pyrrolo[2,3-b]pyridin-3-yl)-5,6-dihydropyridine-1(2H)-carboxylate] showed a concentration for half-maximal inhibition (IC50) of 0.32 µM.

`O=C(OC1CCCC1)N1CC=C(c2c[nH]c3ncccc23)CC1` [Example 140, Cyclopentyl 4-(1H-pyrrolo[2,3-b]pyridin-3-yl)-3,6-dihydropyridine-1(2H)-carboxylate] yielded a half-inhibitory concentration (IC50) of 0.31 µM.

Regarding `CCC(C)OC(=O)N1CC=C(c2c[nH]c3ncccc23)CC1` (stereo not drawn) [Example 141, sec-Butyl 4-(1H-pyrrolo[2,3-b]pyridin-3-yl)-5,6-dihydropyridine-1(2H)-carboxylate], the IC50 was 0.5 µM.

Turning to `CCC(CC)OC(=O)N1CC=C(c2c[nH]c3ncccc23)CC1` [Example 142, Pentan-3-yl 4-(1H-pyrrolo[2,3-b]pyridin-3-yl)-5,6-dihydropyridine-1(2H)-carboxylate], half-maximal inhibition (IC50) was put at 3 µM.

Compound `O=C(OC1CCCCC1)N1CC=C(c2c[nH]c3ncccc23)CC1` [Example 143, Cyclohexyl 4-(1H-pyrrolo[2,3-b]pyridin-3-yl)-5,6-dihydropyridine-1(2H)-carboxylate] had an IC50 of 1 µM.

Take `COc1ccc(-c2cnc3[nH]cc(C4=CCN(C(=O)OC5CCCC5)CC4)c3c2)cc1OC` [Example 144, Cyclopentyl 4-(5-(3,4-dimethoxyphenyl)-1H-pyrrolo[2,3-b]pyridin-3-yl)-5,6-dihydropyridine-1(2H)-carboxylate]: the 50% inhibitory concentration (IC50) turned out to be 0.46 µM.

Take `CC(C)OC(=O)N1CC=C(c2c[nH]c3ncc(-c4cccc(S(N)(=O)=O)c4)cc23)CC1` [Example 146, Isopropyl 4-(5-(3-sulfamoylphenyl)-1H-pyrrolo[2,3-b]pyridin-3-yl)-5,6-dihydropyridine-1(2H)-carboxylate]: the IC50 is over 10 µM.
